Target: T1, human thrombin (Homo sapiens, UniProt P00734)
T1 construct: purchased Sigma T-6759
Assay: Inhibitory activity for thrombin (chromogenic substrate hydrolysis, 405 nm)
Format: biochemical
Conditions: for Selectivity (trypsin/thrombin): IC50 for trypsin divided by IC50 for thrombin; for IC50: human thrombin, 20 min, pH 8.0, N-benzoyl-Phe-Val-Arg-p-nitroanilide
Method: 20 μl of each compound of the present invention was dissolved in 50% methanol in various concentrations and then added to each well of a microplate, to each of which 160 μl of the reaction medium containing 125 mM NaCl, 50 mM Tris-HCl (pH 8.0) and 2 mM synthetic substrate (N-benzoyl-Phe-Val-Arg-p-nitroanilide, Sigma B-7632) were added. 20 μl of human thrombin solution (5 units/ml, Sigma T-6759, manufactured by Sigma Co.) containing 0.1% bovine serum albumin was added to each well to initiate the enzymatic reaction. After 20 minutes, the hydrolysis of substrate was determined by measuring the absorbance at 405 nm. […] The selectivity index was calculated by dividing the IC50 value for trypsin by the IC50 value for thrombin. The thrombin inhibitory activity and the trypsin inhibitory activity for the compound of the present invention are shown in the following Table 2.

SMILES | Selectivity (trypsin/thrombin) | IC50 [nM]
CCn1c(CC[C@@H]2CCCN2C(=O)[C@H]2CCCN2C(=O)C[C@H](NS(C)(=O)=O)C(=O)O)cc2ccc(C(=N)N)cc21 [Compound 163, 4-[(R)-2-[[(S)-2-[2-(6-amidino-1-ethylindol-2-yl)ethyl]pyrrolidinyl]carbonyl]pyrrolidinyl]-(S)-2-[(methanesulfonyl)amino]-4-oxobutanoic acid] | 25.6 | 19.4
CCOC(=O)CC(=O)N1CCC[C@@H]1C(=O)N1CCC[C@H]1CCc1cc2ccc(C(=N)N)cc2n1CC [Compound 174, ethyl 3-[(R)-2-[[(S)-2-[2-(6-amidino-1-ethylindol-2-yl)ethyl]pyrrolidinyl]carbonyl]pyrrolidinyl]-3-oxopropanoate] | 25.7 | 16.2
CCn1c(CC[C@@H]2CCCN2C(=O)[C@H]2CCCN2C(=O)[C@@H](N)C(C)C)cc2ccc(C(=N)N)cc21 [Compound 145, 1-ethyl-2-[2-[(S)-1-[[(R)-1-((S)-2-amino-3-methylbutanoyl)pyrrolidin-2-yl]carbonyl]pyrrolidin-2-yl]-ethyl]indole-6-carboxamidine] | 20.1 | 26.1
CCn1c(CC[C@@H]2CCCN2C(=O)CNC2CC2)cc2ccc(C(=N)N)cc21 [Compound 57, 1-ethyl-2-[2-[(S)-1-(2-cyclopropylaminoacetyl)pyrrolidin-2-yl]ethyl]indole-6-carboxamidine] |  | 7.73
CCn1c(CC[C@@H]2CCCN2C(=O)C(C)N(CC(=O)O)C2CC2)cc2ccc(C(=N)N)cc21 (stereo partly drawn) [Compound 65, 2-[[2-[(S)-2-[2-(6-amidino-1-ethylindol-2-yl)ethyl]pyrrolidinyl]-1-methyl-2-oxoethyl]cyclopylamino]acetic acid] |  | 22.1
CCn1c(CC[C@@H]2CCCN2C(=O)Cc2ccccc2C(=O)O)cc2ccc(C(=N)N)cc21 [Compound 24, 2-[2-[(S)-2-[2-(6-amidino-1-ethylindol-2-yl)ethyl]pyrrolidinyl]-2-oxoethyl]benzoic acid] | 83.6 | 8.45
CCn1c(CC[C@@H]2CCCN2C(=O)[C@H]2CCCN2C(=O)C(C)CN)cc2ccc(C(=N)N)cc21 (stereo partly drawn) [Compound 156, 1-ethyl-2-[2-[(S)-1-[[(R)-1-(3-amino-2-methylpropanoyl)pyrrolidin-2-yl]carbonyl]pyrrolidin-2-yl]ethyl]indole-6-carboxamidine] |  | 28.6
N=C(N)c1ccc2cc(CC[C@H]3CCCN3C(=O)Cc3ccccc3)ccc2c1 [Compound 244, 6-[2-[(S)-1-(2-phenylacetyl)pyrrolidine-2-yl]ethyl]naphthalene-2-carboxamidine] |  | 53.6
CCOC(=O)C(c1ccccc1)N1CCC[C@@H]1C(=O)N1CCC[C@H]1CCc1cc2ccc(C(=N)N)cc2n1CC (stereo partly drawn) [Compound 112, ethyl-2-[(R)-2-[[(S)-2-[2-(6-amidino-1-ethylindol-2-yl)ethyl]pyrrolidinyl]carbonyl]pyrrolidinyl]-2-phenylacetate] |  | 29.2
CCOC(=O)C[C@H](N)C(=O)N1CCC[C@@H]1C(=O)N1CCC[C@H]1CCc1cc2ccc(C(=N)N)cc2n1CC [Compound 147, ethyl 4-[(R)-2-[[(S)-2-[2-(6-amidino-1-ethylindol-2-yl)ethyl]pyrrolidinyl]carbonyl]pyrrolidinyl]-(S)-3-amino-4-oxobutanoate] |  | 25.5
CCOC(=O)CCC(=O)N1CCC[C@@H]1C(=O)N1CCC[C@H]1CCc1cc2ccc(C(=N)N)cc2n1CC [Compound 176, ethyl 4-[(R)-2-[[(S)-2-[2-(6-amidino-1-ethylindol-2-yl)ethyl]pyrrolidinyl]carbonyl]pyrrolidinyl]-4-oxobutanoate] | 20.7 | 21.7
CCOC(=O)[C@H](C)NC(=O)CN1CCC[C@@H]1C(=O)N1CCC[C@H]1CCc1cc2ccc(C(=N)N)cc2n1CC [Compound 116, ethyl (s)-2-[2-[(R)-2-[[(S)-2-[2-(6-amidino-1-ethylindol-2-yl)ethyl]pyrrolidinyl]carbonyl]pyrrolidinyl]-acetylamino]propanoate] | 27.4 | 31.7
CCn1c(CC[C@@H]2CCCN2C(=O)CC2CCCCC2)cc2ccc(C(=N)N)cc21 [Compound 46, 1ethyl-2-[2-[(S)-1-(2-cyclohexylacetyl)pyrrolidin-2-yl]ethyl]indole-6-carboxamidine] |  | 28.9
CCn1c(CC[C@@H]2CCCN2C(=O)CC2CCCC2)cc2ccc(C(=N)N)cc21 [Compound 43, 1ethyl-2-[2-[(S)-1-(2-cyclopentylacetyl)pyrrolidin-2-yl]ethyl]indole-6-carboxamidine] | 40.3 | 9.96
CCOC(=O)CN(CC(=O)N1CCC[C@H]1CCc1cc2ccc(C(=N)N)cc2n1CC)C1CC1 [Compound 62, ethyl 2-[[2-[(S)-2-[2-(6-amidino-1-ethylindol-2-yl)ethyl]pyrrolidinyl]-2-oxoethyl]cyclopropylamino]acetate] | 49.7 | 11.7
CCn1c(CC[C@@H]2CCCN2C(=O)C2CCCNC2)cc2ccc(C(=N)N)cc21 (stereo partly drawn) [Compound 194, 1-ethyl-2-[2-[(S)-1-[(3-piperidinyl)carbonyl]pyrrolidin-2-yl]ethyl]indole-6-carboxamidine] |  | 31.7

SMILES | Selectivity (trypsin/thrombin) | IC50 [nM]
CCn1c(CC[C@H]2C[C@H](C)CN2C(=O)[C@H]2CCCN2CC(=O)O)cc2ccc(C(=N)N)cc21 [Compound 98, 2-[(R)-2-[[(S)-2-[2-(6-amidino-1-ethylindol-2-yl)ethyl]-(S)-4-methylpyrrolidinyl]carbonyl]pyrrolidinyl]acetic acid] |  | 20.3
CCOC(=O)C1CCCN1CC(=O)N1CCC[C@H]1CCc1cc2ccc(C(=N)N)cc2n1CC (stereo partly drawn) [Compound 196, ethyl 1-[2-[(S)-2-[2-(6-amidino-1-ethylindol-2-yl)ethyl]pyrrolidinyl]-2-oxoethyl]pyrrolidine-2-carboxylate] | 14.4 | 37.2
Cn1c(CC[C@@H]2CCCN2Cc2c(C(N)=O)sc3ccccc23)cc2ccc(C(=N)N)cc21 [Compound 9] |  | 33.9
CCn1c(CC[C@@H]2CCCN2C(=O)[C@H](NCC(=O)O)c2ccccc2)cc2ccc(C(=N)N)cc21 [Compound 40, 2-[[(R)-2-[2-(S)-2-[2-(6-amidino-1-ethylindol-2-yl)ethyl]pyrrolidinyl]-2-oxo-1-phenylethyl]amino]acetic acid] |  | 7.95
CCn1c(CCC2CCCN2C(=O)C2CCCN2C(CC(=O)O)C(=O)O)cc2ccc(C(=N)N)cc21 [Compound 123, 1-[(R)-2-[[(S)-2-[2-(6-amidino-1-ethyl-indol-2-yl)ethyl]pyrrolidinyl]carbonyl]pyrrolidinyl]ethane-1,2-dicarboxylic acid] |  | 32.9
CCn1c(CC[C@@H]2CCCN2C(=O)[C@H]2CCCN2)cc2ccc(C(=N)N)cc21 [Compound 83] |  | 30.9
CCOC(=O)CC(NC1CC1)C(=O)N1CCC[C@H]1CCc1cc2ccc(C(=N)N)cc2n1CC (stereo partly drawn) [Compound 72, ethyl 4-[(S)-2-[2-(6-amidino-1-ethylindol-2-yl)ethyl]pyrrolidinyl]-3-cyclopropylamino-4-oxobutanoate] | 13.6 | 9.4
CCn1c(CC[C@@H]2CCCN2C(=O)[C@H]2CCCN2CC(=O)NC2CC2)cc2ccc(C(=N)N)cc21 [Compound 115, 1-ethyl-2-[2-[(S)-1-[[(R)-1-[(N-cyclopropylcarbamoyl)methyl]pyrrolidin-2-yl]carbonyl]pyrrolidin-2-yl]-ethyl]indole-6-carboxamidine] |  | 31.8
CCn1c(CC[C@@H]2CCCN2C(=O)C2CCCCN2CC(=O)OC)cc2ccc(C(=N)N)cc21 (stereo partly drawn) [Compound 192, methyl-2-[2-[[(S)-2-[2-(6-amidino-1-ethylindol-2-yl)ethyl]pyrrolidinyl]carbonyl]piperidinyl]acetate] |  | 33.8
CCn1c(CC[C@@H]2CCCN2C(=O)[C@H]2CCCN2C(=O)C2CCCNC2)cc2ccc(C(=N)N)cc21 (stereo partly drawn) [Compound 168, 1-ethyl-2-[2-[(S)-1-[[(R)-1-(3-piperidinylcarbonyl)pyrrolidin-2-yl]carbonyl]pyrrolidin-2-yl]ethyl]indole-6-carboxamidine] |  | 31.6
CCn1c(CC[C@@H]2CCCN2C(=O)C(CC(=O)O)NC2CC2)cc2ccc(C(=N)N)cc21 (stereo partly drawn) [Compound 73, 4-[(S)-2-[2-(6-amidino-1-ethylindol-2-yl)ethyl]pyrrolidinyl]-3-cyclopropylamino-4-oxobutanoic acid] |  | 33.2
CCC(N)C(=O)N1CCC[C@@H]1C(=O)N1CCC[C@H]1CCc1cc2ccc(C(=N)N)cc2n1CC (stereo partly drawn) [Compound 144, 1-ethyl-2-[2-[(S)-1-[[(R)-1-(2-aminobutanoyl)pyrrolidin-2-yl]carbonyl]pyrrolidin-2-yl]ethyl]indole-6-carboxamidine] |  | 25.3
CCn1c(CC[C@@H]2CCCN2C(=O)[C@H](NCC(N)=O)c2ccccc2)cc2ccc(C(=N)N)cc21 [Compound 39, 1ethyl-2-[2-[(S)-1-[(R)-2-(carbamoylmethylamino)-2-phenylacetyl]pyrrolidin-2-yl]ethyl]indole-6-carboxamidine] |  | 6.91
CC(=O)N1CCC[C@@H]1C(=O)N1CCC[C@H]1CCc1cc2ccc(C(=N)N)cc2n1CC(N)=O [Compound 224, 2-[2-[(S)-1-[((R)-1-acetylpyrrolidin-2-yl)carbonyl]pyrrolidin-2-yl]ethyl]-1-(carbamoylmethyl)indole-6-carboxamidine] |  | 24.1
CCOC(=O)CN(C1CC1)C(C)C(=O)N1CCC[C@H]1CCc1cc2ccc(C(=N)N)cc2n1CC (stereo partly drawn) [Compound 64, ethyl 2-[[2-[(S)-2-[2-(6-amidino-1-ethylindol-2-yl)ethyl]pyrrolidinyl]-1-methyl-2-oxoethyl]cyclo-propylamino]acetate] | 22.9 | 15.2

— patent US6201006A, “Aromatic amidine derivatives useful as selective thrombin inhibitors” (C & C Research Laboratories, priority 1996, dated 2001)
